Measured values taken from US4746736A, “Carbapenem antibiotics” (priority 1986, dated 1988).
Values after ≈ are worked out from the molar mass of the structure shown. Where two headings read alike, the source gives them in different places.

How the values were obtained:
[1] = system: S. aureus A-9606 (Pen-res.); assay: In vitro MIC by tube dilution, S. aureus A-9606 (Pen-res.); assay type: cell-based; conditions: S. aureus A-9606 (Pen-res)
S. aureus A-9537 = assay: In vitro MIC by tube dilution, S. aureus A-9537; assay type: cell-based
E. cloacae A-9656 = assay: In vitro MIC by tube dilution, E. cloacae A-9656; assay type: cell-based
P. rettgeri A22424 = assay: In vitro MIC by tube dilution, P. rettgeri A22424; assay type: cell-based
S. marcescens A20019 = assay: In vitro MIC by tube dilution, S. marcescens A20019; assay type: cell-based
P. morganii A15153 = assay: In vitro MIC by tube dilution, P. morganii (M. morganii) A15153; assay type: cell-based
P. vulgaris A21559 = assay: In vitro MIC by tube dilution, P. vulgaris A21559; assay type: cell-based
K. pneumoniae A-9664 = assay: In vitro MIC by tube dilution, K. pneumoniae A-9664; assay type: cell-based
P. mirabilis A-9900 = assay: In vitro MIC by tube dilution, P. mirabilis A-9900; assay type: cell-based
E. coli A15119 = assay: In vitro MIC by tube dilution, E. coli A15119; assay type: cell-based; conditions: E. coli A15119
K. pneumoniae A20468 = assay: In vitro MIC by tube dilution, K. pneumoniae A20468; assay type: cell-based
E. cloacae A-9659 = assay: In vitro MIC by tube dilution, E. cloacae A-9659; assay type: cell-based
P. aeruginosa A-9843A = assay: In vitro MIC by tube dilution, P. aeruginosa A-9843A; assay type: cell-based; conditions: P. aeruginosa A-9843a
S. faecalis A20688 = assay: In vitro MIC by tube dilution, S. faecalis A20688; assay type: cell-based
E. coli A20341-1 = assay: In vitro MIC by tube dilution, E. coli A20341-1; assay type: cell-based
P. aeruginosa A21213 = assay: In vitro MIC by tube dilution, P. aeruginosa A21213; assay type: cell-based; conditions: P. aeruginosa A21213
[2] = Blood levels in mice after intramuscular administration; conditions: 20 mg/kg i.m., mice (compiled table)
Source text: Compounds were solubilized in 0.1 M phosphate buffer pH 7.
Values are from a single test; 4 mice used per compound.
Compounds were solubilized in 0.1 M phosphate buffer, pH 7.
Values based on a single test; 4 mice per compound.

S. pneumoniae A-9585 = assay: In vitro MIC by tube dilution, S. pneumoniae A-9585; assay type: cell-based
S. pyogenes A9604 = assay: In vitro MIC by tube dilution, S. pyogenes A9604; assay type: cell-based
H. influenzae A-9833 = assay: In vitro MIC by tube dilution, H. influenzae A-9833; assay type: cell-based; conditions: Haemophilus influenzae, A9833
H. influenzae A21518 = assay: In vitro MIC by tube dilution, H. influenzae A21518; assay type: cell-based; conditions: Haemophilus influenzae
[3] = Staphylococcus aureus, read-out: MIC
[4] = Staphylococcus aureus, A9537, S. aureus A-9537, no serum, read-out: MIC
[5] = Enterobacter cloacae, A9656, E. cloacae A-9656, read-out: MIC
[6] = Providencia rettgeri, A22424, P. rettgeri A22424, read-out: MIC
[7] = Serratia marcescens, read-out: MIC
[8] = Morganella morganii, A15153, M. morganii A15153, read-out: MIC
[9] = Klebsiella pneumoniae, A9664, read-out: MIC
[10] = Proteus mirabilis, A9900, P. mirabilis A-9900, read-out: MIC
[11] = Escherichia coli, read-out: MIC
[12] = Enterobacter cloacae, A9659, E. cloacae A-9659, read-out: MIC
[13] = Staphylococcus aureus, A9537, S. aureus A-9537 +50% serum, read-out: MIC
[14] = Pseudomonas aeruginosa, A9843A, read-out: MIC
[15] = Enterococcus faecalis, A20688, S. faecalis A20688, read-out: MIC
[16] = Escherichia coli, A203411, read-out: MIC
[17] = Streptococcus pneumoniae, A9585, S. pneumoniae A-9585, read-out: MIC
[18] = Streptococcus pyogenes, A9604, S. pyogenes A-9604, read-out: MIC

Work on `C[C@@H](O)[C@H]1C(=O)N2C(C(=O)[O-])=C(SCc3cn(CC(=O)O)n[n+]3C)C[C@H]12` [Example 18, Potassium 3-[4-(1-carboxylatomethyl-3-methyl-1,2,3-triazolium)-methanethio]-6α-[1-(R)-hydroxyethyl]-7-oxo-1-azabicyclo[3.2.0]hept-2-ene-2-carboxylate] yielded an MIC [1, 3] greater than 125 µg/mL, an MIC (S. aureus A-9537; [4]) of 32 µg/mL and an MIC (E. cloacae A-9656; [5]) of 125 µg/mL. For the same compound, the MIC (P. rettgeri A22424; [6]) was 32 µg/mL, the MIC (S. marcescens A20019; [7]) was 32 µg/mL and the MIC (P. morganii A15153; [8]) was 32 µg/mL. For the same compound, the MIC (P. vulgaris A21559; Proteus vulgaris, A21559, P. vulgaris A21559, read-out: MIC) was 32 µg/mL, the MIC (K. pneumoniae A-9664; [9]) was 32 µg/mL and the MIC (P. mirabilis A-9900; [10]) was 32 µg/mL.

Work on `C[C@@H](O)[C@H]1C(=O)N2C(C(=O)[O-])=C(SCc3cn(C)n[n+]3C)C[C@H]12` [Example 15 "A", 3-[4-(N,N-dimethyl-1,2,3-triazolium)methylthio]-6α-[1-(R)-hydroxyethyl]-7-oxo-1-azabicyclo(3.2.0)hept-2-ene-2-carboxylate] yielded an MIC (E. coli A15119; [11]) of 0.004 µg/mL (≈ 0.0118 µM), an MIC (K. pneumoniae A20468; Klebsiella pneumoniae, K. pneumoniae A20468, read-out: MIC) of 0.008 µg/mL (≈ 0.0236 µM) and an MIC (E. cloacae A-9659; [12]) of 0.016 µg/mL (≈ 0.0473 µM). For the same compound, the MIC [1, 3] was 0.004 µg/mL (≈ 0.0118 µM), the MIC (S. aureus A-9537; [13]) was 0.03 µg/mL (≈ 0.0887 µM) and the MIC (S. aureus A-9537; [4]) was 0.03 µg/mL (≈ 0.0887 µM). It also gave an MIC (E. cloacae A-9656; [5]) of 0.016 µg/mL (≈ 0.0473 µM), an MIC (P. aeruginosa A-9843A; [14]) of 0.5 µg/mL (≈ 1.48 µM) and an MIC (S. faecalis A20688; [15]) of 0.13 µg/mL (≈ 0.384 µM). For the same compound, the MIC (P. rettgeri A22424; Providencia rettgeri, P. rettgeri A22424, read-out: MIC) was 0.03 µg/mL (≈ 0.0887 µM), the MIC (E. coli A20341-1; [16]) was 0.004 µg/mL (≈ 0.0118 µM) and the MIC (S. marcescens A20019; [7]) was 0.008 µg/mL (≈ 0.0236 µM). It also gave an MIC (P. morganii A15153; Morganella morganii, M. morganii A15153, read-out: MIC) of 0.03 µg/mL (≈ 0.0887 µM), an MIC (K. pneumoniae A-9664; [9]) of 0.008 µg/mL (≈ 0.0236 µM) and an MIC (P. aeruginosa A21213; Pseudomonas aeruginosa, read-out: MIC) of 0.03 µg/mL (≈ 0.0887 µM). The MIC (P. mirabilis A-9900; [10]) was 0.008 µg/mL (≈ 0.0236 µM).

For `C[C@@H](O)C1C(=O)N2C(C(=O)[O-])=C(SCc3cn(C)n[n+]3C)CC12` (stereo partly drawn) [Example 15 "C", 3-[4-(N,N-dimethyl-1,2,3-triazolium)methylthio]-6α-[1-(R)-hydroxyethyl]-7-oxo-1-azabicyclo(3.2.0)hept-2-ene-2-carboxylate], the MIC (E. coli A15119) was 0.06 µg/mL (≈ 0.177 µM), the MIC (K. pneumoniae A20468; K. pneumoniae A20468) was 0.13 µg/mL (≈ 0.384 µM) and the MIC (E. cloacae A-9659; E. cloacae A-9659) was 0.13 µg/mL (≈ 0.384 µM). The MIC [1] was 0.03 µg/mL (≈ 0.0887 µM), the MIC (S. aureus A-9537; S. aureus A-9537 +50% serum) was 0.06 µg/mL (≈ 0.177 µM) and the MIC (S. aureus A-9537; S. aureus A-9537, no serum) was 0.016 µg/mL (≈ 0.0473 µM). It also gave an MIC (E. cloacae A-9656; E. cloacae A-9656) of 0.13 µg/mL (≈ 0.384 µM), an MIC (P. aeruginosa A-9843A) of 8 µg/mL (≈ 23.6 µM) and an MIC (S. faecalis A20688; S. faecalis A20688) of 0.5 µg/mL (≈ 1.48 µM). The MIC (P. rettgeri A22424; P. rettgeri A22424) was 0.25 µg/mL (≈ 0.739 µM), the MIC (E. coli A20341-1) was 0.03 µg/mL (≈ 0.0887 µM) and the MIC (S. marcescens A20019) was 0.13 µg/mL (≈ 0.384 µM). It also gave an AUC [2] of 7300 ng·h/mL, a T1/2 [2] of 10 min and an MIC (S. pneumoniae A-9585; S. pneumoniae A-9585) of 0.0005 µg/mL (≈ 0.00148 µM). The MIC (P. morganii A15153; M. morganii A15153) was 0.25 µg/mL (≈ 0.739 µM), the MIC (P. vulgaris A21559; P. vulgaris A21559) was 0.06 µg/mL (≈ 0.177 µM) and the MIC (S. pyogenes A9604; S. pyogenes A-9604) was 0.0003 µg/mL (≈ 0.000887 µM). For the same compound, the MIC (K. pneumoniae A-9664) was 0.06 µg/mL (≈ 0.177 µM), the MIC (P. aeruginosa A21213) was 0.5 µg/mL (≈ 1.48 µM) and the MIC (P. mirabilis A-9900; P. mirabilis A-9900) was 0.06 µg/mL (≈ 0.177 µM).

Work on `CCC[n+]1ccc(CSC2=C(C(=O)[O-])N3C(=O)[C@H]([C@@H](C)O)[C@H]3C2)cc1` [Example 6, 3-(1-Propylpyridine-4-yl-methanethio)-6α-[1-(R)-hydroethyl]-7-oxo-1-azabicyclo(3.2.0)hept-2-ene-2-carboxylate] yielded an MIC (H. influenzae A-9833) greater than 32 µg/mL, an MIC [1, 3] of 0.03 µg/mL (≈ 0.0828 µM) and an MIC (S. aureus A-9537; [4]) of 0.03 µg/mL (≈ 0.0828 µM). For the same compound, the MIC (H. influenzae A21518) was greater than 32 µg/mL, the MIC (P. aeruginosa A-9843A; [14]) was 8 µg/mL (≈ 22.1 µM) and the MIC (S. pneumoniae A-9585; [17]) was 0.004 µg/mL (≈ 0.011 µM). It also gave an MIC (S. pyogenes A9604; [18]) of 0.004 µg/mL (≈ 0.011 µM).

In the case of `Cc1ccc[n+](C)c1CSC1=C(C(=O)[O-])N2C(=O)[C@H]([C@@H](C)O)[C@H]2C1` [Example 7, 3-(N-Methyl-3-methylpyridine-2-methanethio)-6α-[1-(R)-hydroxyethyl]-7-oxo-1-azabicyclo(3.2.0)hept-2-ene-2-carboxylate], the MIC (E. coli A15119; [11]) is reported as 0.004 µg/mL (≈ 0.0115 µM), the MIC (K. pneumoniae A20468; Klebsiella pneumoniae, A20468, K. pneumoniae A20468, read-out: MIC) is reported as 0.016 µg/mL (≈ 0.0459 µM) and the MIC (H. influenzae A-9833) is reported as greater than 32 µg/mL. The MIC (E. cloacae A-9659; [12]) was 0.016 µg/mL (≈ 0.0459 µM), the MIC [1, 3] was 0.016 µg/mL (≈ 0.0459 µM) and the MIC (S. aureus A-9537; [13]) was 0.03 µg/mL (≈ 0.0861 µM). For the same compound, the MIC (S. aureus A-9537; [4]) was 0.008 µg/mL (≈ 0.023 µM), the MIC (H. influenzae A21518) was greater than 32 µg/mL and the MIC (E. cloacae A-9656; [5]) was 0.016 µg/mL (≈ 0.0459 µM). It also gave an MIC (P. aeruginosa A-9843A; [14]) of 1 µg/mL (≈ 2.87 µM), an MIC (S. faecalis A20688; [15]) of 0.13 µg/mL (≈ 0.373 µM) and an MIC (P. rettgeri A22424; [6]) of 0.06 µg/mL (≈ 0.172 µM). For the same compound, the MIC (E. coli A20341-1; [16]) was 0.004 µg/mL (≈ 0.0115 µM), the MIC (S. marcescens A20019; [7]) was 0.008 µg/mL (≈ 0.023 µM) and the MIC (S. pneumoniae A-9585; [17]) was 0.004 µg/mL (≈ 0.0115 µM). For the same compound, the MIC (P. morganii A15153; [8]) was 0.016 µg/mL (≈ 0.0459 µM), the MIC (S. pyogenes A9604; [18]) was 0.004 µg/mL (≈ 0.0115 µM) and the MIC (K. pneumoniae A-9664; [9]) was 0.016 µg/mL (≈ 0.0459 µM). The MIC (P. mirabilis A-9900; [10]) was 0.016 µg/mL (≈ 0.0459 µM).
